According to ChEMBL document CHEMBL3259567, “Novel 2,4-Diarylaminopyrimidine Analogues (DAAPalogues) Showing Potent c-Met/ALK Multikinase Inhibitory Activities” (ACS Med Chem Lett, 2014):
pIC50, pKi: −log10 of the molar value. Each block holds one compound with its values, some of them ahead of it. Activity calls are given as the source filed them. No cut-off for these calls is given here.

Legend:
[1] = target: ALK tyrosine kinase receptor (Homo sapiens, UniProt Q9UM73)
[2] = target: Hepatocyte growth factor receptor (Homo sapiens, UniProt P08581)
D(1A) dopamine receptor = D(1A) dopamine receptor (Homo sapiens, UniProt P21728); test: Antagonist activity at dopamine D1 receptor (unknown origin)
D(1B) dopamine receptor = D(1B) dopamine receptor (Homo sapiens, UniProt P21918); test: Antagonist activity at dopamine D5 receptor (unknown origin)
[3] = target: Macrophage-stimulating protein receptor (Homo sapiens) (UniProt Q04912); test: Inhibition of purified recombinant RON (unknown origin) at 1 uM after 60 mins by ELISA
cells [4] = settings: Homo sapiens, KARPAS-299, 72 h
Description: Antiproliferative activity against ALK-dependent human KARPAS299 cells after 72 hrs

[5] = Half life in mouse at 10 mg/kg, iv; format: ADME, organism-based; set-up: dose 10 mg/kg, route intravenous; settings: in vivo
[6] = Clearance in mouse at 10 mg/kg, iv; format: ADME, organism-based; set-up: dose 10 mg/kg, route intravenous; settings: in vivo
[7] = AUC (0 to infinity) in mouse at 20 mg/kg, po; format: ADME, organism-based; set-up: time infinity, dose 20 mg/kg, route oral; settings: plasma
[8] = Oral bioavailability in mouse at 20 mg/kg; format: ADME, organism-based; settings: in vivo
[9] = target: Proto-oncogene tyrosine-protein kinase receptor Ret (Homo sapiens) (UniProt P07949); test: Inhibition of purified recombinant RET (unknown origin) at 1 uM after 60 mins by ELISA
[10] = target: Fibroblast growth factor receptor 1 (Homo sapiens) (UniProt P11362); test: Inhibition of purified recombinant FGFR1 (unknown origin) at 1 uM after 60 mins by ELISA
BaF3 [11] = test: Antitumor activity against mouse BAF3 cells expressing EML4-ALK fusion protein allografted in nude mouse assessed as tumor growth inhibition at 0.3 to 1 mg/kg, po qd for 2 weeks relative to vehicle-treated control; format: functional, organism-based
[12] = target: Proto-oncogene tyrosine-protein kinase Src (Homo sapiens) (UniProt P12931); test: Inhibition of purified recombinant c-SRC (unknown origin) at 1 uM after 60 mins by ELISA
cells [13] = settings: Homo sapiens, EBC-1, 72 h
Description: Antiproliferative activity against cMET-amplified human EBC1 cells after 72 hrs

BaF3 [14] = test: Antitumor activity against mouse BAF3 cells expressing EML4-ALK fusion protein allografted in nude mouse assessed as tumor growth inhibition at 1 mg/kg, po qd for 2 weeks relative to vehicle-treated control; format: functional; settings: BaF3, 336 h, read-out: TGI

Chain of Hepatocyte growth factor receptor (P08581 whole entry): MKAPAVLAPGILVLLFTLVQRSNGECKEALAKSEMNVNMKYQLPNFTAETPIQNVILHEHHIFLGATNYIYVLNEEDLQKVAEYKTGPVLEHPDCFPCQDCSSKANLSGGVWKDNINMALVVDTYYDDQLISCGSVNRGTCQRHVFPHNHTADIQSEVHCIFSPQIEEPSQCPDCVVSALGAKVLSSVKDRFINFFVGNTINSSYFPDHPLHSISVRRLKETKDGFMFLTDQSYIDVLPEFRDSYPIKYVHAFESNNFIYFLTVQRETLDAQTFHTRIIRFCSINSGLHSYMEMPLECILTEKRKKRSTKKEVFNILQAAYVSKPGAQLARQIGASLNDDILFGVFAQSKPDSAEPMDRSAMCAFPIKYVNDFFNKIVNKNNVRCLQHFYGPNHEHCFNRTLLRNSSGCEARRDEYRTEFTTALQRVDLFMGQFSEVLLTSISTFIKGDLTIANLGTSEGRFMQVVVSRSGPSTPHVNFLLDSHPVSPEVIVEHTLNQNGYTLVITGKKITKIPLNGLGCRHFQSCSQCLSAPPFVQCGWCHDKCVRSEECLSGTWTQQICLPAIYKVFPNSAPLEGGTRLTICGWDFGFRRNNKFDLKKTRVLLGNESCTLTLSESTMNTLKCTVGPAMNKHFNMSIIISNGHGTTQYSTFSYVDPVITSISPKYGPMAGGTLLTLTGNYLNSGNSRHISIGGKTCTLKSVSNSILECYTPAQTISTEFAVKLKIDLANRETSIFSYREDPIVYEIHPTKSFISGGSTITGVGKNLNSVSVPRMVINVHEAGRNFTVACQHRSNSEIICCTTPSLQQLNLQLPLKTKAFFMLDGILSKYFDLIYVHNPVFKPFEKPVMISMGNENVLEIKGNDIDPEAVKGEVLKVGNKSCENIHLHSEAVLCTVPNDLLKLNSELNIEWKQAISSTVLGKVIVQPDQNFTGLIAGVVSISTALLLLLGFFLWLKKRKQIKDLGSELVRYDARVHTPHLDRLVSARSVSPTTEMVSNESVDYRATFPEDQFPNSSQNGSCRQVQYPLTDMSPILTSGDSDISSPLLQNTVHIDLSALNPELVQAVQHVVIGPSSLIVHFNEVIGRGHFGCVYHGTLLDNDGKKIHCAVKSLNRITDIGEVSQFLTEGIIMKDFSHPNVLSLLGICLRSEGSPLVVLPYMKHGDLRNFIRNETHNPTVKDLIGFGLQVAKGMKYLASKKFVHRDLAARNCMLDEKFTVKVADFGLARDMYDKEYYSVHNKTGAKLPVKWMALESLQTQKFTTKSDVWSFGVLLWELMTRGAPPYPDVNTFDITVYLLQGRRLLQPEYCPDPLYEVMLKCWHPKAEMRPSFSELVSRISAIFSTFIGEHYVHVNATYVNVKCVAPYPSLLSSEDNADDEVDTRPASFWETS
Chain of ALK tyrosine kinase receptor (Q9UM73 whole entry): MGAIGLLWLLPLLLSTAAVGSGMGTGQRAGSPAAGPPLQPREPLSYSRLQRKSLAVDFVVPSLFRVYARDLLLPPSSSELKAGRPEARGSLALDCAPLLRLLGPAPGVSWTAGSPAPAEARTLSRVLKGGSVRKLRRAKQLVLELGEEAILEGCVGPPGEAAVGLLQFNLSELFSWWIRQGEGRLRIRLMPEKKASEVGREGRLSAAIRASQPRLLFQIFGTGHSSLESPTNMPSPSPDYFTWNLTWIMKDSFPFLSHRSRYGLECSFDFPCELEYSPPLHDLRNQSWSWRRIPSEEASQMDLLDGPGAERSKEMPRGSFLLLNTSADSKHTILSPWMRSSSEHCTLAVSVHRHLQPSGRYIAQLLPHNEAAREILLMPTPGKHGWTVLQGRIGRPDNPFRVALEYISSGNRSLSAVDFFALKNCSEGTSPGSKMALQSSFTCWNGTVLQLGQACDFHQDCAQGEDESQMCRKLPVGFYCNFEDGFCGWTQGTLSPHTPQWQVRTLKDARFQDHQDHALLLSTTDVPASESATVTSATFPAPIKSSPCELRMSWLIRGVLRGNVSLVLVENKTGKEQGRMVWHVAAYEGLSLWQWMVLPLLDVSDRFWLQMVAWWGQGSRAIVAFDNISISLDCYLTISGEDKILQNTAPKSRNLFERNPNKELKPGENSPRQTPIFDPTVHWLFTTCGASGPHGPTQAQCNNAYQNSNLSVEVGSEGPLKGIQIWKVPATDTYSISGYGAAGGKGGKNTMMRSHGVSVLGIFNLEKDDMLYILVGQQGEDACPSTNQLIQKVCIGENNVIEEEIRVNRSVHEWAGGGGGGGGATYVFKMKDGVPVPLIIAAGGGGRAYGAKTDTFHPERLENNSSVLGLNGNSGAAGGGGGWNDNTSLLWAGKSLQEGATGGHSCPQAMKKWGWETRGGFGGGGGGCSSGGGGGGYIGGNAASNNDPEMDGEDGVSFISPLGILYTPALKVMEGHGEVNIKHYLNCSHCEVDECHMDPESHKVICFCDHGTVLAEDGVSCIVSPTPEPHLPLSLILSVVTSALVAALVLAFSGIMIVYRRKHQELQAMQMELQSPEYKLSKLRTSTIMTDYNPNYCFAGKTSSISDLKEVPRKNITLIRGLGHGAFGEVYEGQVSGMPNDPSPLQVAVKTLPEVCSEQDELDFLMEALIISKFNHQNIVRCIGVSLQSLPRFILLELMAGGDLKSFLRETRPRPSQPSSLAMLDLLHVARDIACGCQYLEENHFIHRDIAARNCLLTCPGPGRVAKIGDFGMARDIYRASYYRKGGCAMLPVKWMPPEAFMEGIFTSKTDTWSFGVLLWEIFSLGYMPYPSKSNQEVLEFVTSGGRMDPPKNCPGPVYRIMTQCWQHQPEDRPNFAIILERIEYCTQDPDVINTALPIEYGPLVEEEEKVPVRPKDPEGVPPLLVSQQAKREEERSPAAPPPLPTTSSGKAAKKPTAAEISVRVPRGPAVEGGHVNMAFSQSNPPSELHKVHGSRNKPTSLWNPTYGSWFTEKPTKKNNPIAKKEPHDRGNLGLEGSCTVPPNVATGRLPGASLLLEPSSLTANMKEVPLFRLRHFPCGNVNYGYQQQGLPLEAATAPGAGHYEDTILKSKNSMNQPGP
Chain of Proto-oncogene tyrosine-protein kinase Src (Homo sapiens) (P12931 2-536 limits assumed): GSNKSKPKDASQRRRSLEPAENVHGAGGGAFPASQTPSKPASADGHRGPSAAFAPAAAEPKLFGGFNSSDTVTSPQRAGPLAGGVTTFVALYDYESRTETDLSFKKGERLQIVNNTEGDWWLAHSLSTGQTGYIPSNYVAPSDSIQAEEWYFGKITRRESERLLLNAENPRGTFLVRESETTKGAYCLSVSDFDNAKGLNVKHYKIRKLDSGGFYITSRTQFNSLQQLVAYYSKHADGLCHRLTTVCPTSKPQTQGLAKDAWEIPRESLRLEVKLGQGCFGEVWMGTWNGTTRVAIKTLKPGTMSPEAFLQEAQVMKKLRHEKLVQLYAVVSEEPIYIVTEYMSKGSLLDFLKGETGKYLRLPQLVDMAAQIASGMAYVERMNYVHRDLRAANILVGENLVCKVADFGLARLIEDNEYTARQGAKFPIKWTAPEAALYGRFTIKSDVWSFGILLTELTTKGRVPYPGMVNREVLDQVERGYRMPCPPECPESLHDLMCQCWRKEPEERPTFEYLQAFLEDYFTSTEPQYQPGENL
Chain of Macrophage-stimulating protein receptor (Homo sapiens) (Q04912 25-304 limits assumed): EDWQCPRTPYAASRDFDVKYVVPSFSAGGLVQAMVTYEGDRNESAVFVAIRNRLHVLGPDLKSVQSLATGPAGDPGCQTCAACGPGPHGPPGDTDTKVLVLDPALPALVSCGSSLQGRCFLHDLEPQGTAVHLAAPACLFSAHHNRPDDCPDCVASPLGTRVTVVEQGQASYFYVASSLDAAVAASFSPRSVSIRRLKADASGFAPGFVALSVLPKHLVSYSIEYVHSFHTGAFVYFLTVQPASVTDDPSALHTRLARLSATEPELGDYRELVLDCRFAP
Chain of Macrophage-stimulating protein receptor (Homo sapiens) (Q04912 310-1400 limits assumed): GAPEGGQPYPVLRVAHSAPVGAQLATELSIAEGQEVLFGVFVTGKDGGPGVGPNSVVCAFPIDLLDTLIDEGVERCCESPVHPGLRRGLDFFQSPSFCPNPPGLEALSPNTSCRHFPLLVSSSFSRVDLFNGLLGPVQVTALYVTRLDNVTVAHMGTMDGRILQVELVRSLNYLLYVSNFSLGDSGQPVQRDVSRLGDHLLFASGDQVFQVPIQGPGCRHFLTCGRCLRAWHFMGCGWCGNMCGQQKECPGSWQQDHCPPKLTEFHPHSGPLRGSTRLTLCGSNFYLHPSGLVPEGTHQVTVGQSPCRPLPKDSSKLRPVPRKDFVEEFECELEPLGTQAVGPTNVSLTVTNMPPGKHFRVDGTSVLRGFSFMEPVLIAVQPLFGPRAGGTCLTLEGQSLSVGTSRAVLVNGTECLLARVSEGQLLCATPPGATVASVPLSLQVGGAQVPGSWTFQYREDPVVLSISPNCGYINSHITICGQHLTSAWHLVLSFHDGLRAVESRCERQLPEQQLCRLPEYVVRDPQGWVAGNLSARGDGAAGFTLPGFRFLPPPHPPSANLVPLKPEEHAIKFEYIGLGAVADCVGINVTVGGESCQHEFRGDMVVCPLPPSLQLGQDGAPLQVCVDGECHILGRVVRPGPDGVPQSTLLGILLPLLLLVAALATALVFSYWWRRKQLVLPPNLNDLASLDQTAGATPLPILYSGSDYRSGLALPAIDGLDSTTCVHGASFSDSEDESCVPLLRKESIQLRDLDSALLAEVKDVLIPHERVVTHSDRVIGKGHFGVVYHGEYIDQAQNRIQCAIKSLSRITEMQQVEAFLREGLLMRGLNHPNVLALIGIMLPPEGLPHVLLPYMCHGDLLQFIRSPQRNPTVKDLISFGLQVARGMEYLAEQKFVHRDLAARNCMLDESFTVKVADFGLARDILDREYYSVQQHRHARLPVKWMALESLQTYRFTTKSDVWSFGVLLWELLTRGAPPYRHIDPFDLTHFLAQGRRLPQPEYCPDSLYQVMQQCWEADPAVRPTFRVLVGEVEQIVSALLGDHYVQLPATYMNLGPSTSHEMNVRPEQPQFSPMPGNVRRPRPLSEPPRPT

pIC50 [1]: 8.10
pIC50 [2]: 8.19
SMILES: CNC(=O)c1ccccc1Nc1nc(Nc2ccc3c(c2)C(C)CNCC3)ncc1Cl (centres undefined)

pIC50 [1]: < 6.00
pIC50 [2]: < 6.00
SMILES: CNC(=O)c1ccccc1Nc1nc(Nc2ccc3c(c2)C(C)CN(C)CC3)nc(F)c1Cl (centres undefined)

pIC50 [1]: < 6.00
pIC50 [2]: < 6.00
SMILES: CNC(=O)c1ccccc1Nc1nc(Nc2ccc3c(c2)C(C)CN(C)CC3)nc(NC)c1Cl (centres undefined)

pIC50 [1]: < 6.00
pIC50 [2]: < 6.00
SMILES: CNC(=O)c1ccccc1Nc1nc(Nc2ccc3c(c2)C(C)CN(C)CC3)nc(N2CCOCC2)c1Cl (centres undefined)

pIC50 [1]: < 6.00
pIC50 [2]: < 6.00
SMILES: CNC(=O)c1ccccc1Nc1nc(Nc2ccc3c(c2)C(C)CN(C)CC3)nc2sccc12 (centres undefined)

pIC50 [1]: < 6.00
pIC50 [2]: < 6.00
SMILES: CNC(=O)c1ccccc1Nc1nc(Nc2ccc3c(c2)C(C)CN(C)CC3)nc2cccnc12 (centres undefined)

pIC50 [1]: < 6.00
pIC50 [2]: < 6.00
SMILES: CNC(=O)c1ccccc1Nc1nc(Nc2ccc3c(c2)C(C)CN(C)CC3)nc2ccccc12 (centres undefined)

pIC50 [1]: < 6.00
pIC50 [2]: < 6.00
SMILES: CC1CN(C)CCc2ccc(Nc3ncc(Cl)c(Nc4ccccc4C(=O)N4CCOCC4)n3)cc21 (centres undefined)

pKi (D(1A) dopamine receptor): > 8.00
pKi (D(1B) dopamine receptor): > 8.00
SMILES: CN1CCc2ccccc2Cc2[nH]c3ccccc3c2CC1

inhibition [3]: Active
pIC50 (cells [4]): 7.52
half-life [5]: 2.2 h
clearance [6]: 33.3 mL/min/kg
AUC(0-inf) [7]: 9070 ng·h/mL
bioavailability [8]: 73%
inhibition [9]: Active
inhibition [10]: Active
inhibition [12]: Active
SMILES: CNC(=O)c1ccccc1Nc1nc(Nc2ccc3c(c2)C(c2ccccc2)CN(C)CC3)ncc1Cl (racemic)
TGI (BaF3 [11]): inactive

inhibition [3]: Active
pIC50 (cells [4]): 7.85
pIC50 (cells [13]): 8.15
half-life [5]: 2.2 h
clearance [6]: 33.3 mL/min/kg
AUC(0-inf) [7]: 5500 ng·h/mL
bioavailability [8]: 20%
inhibition [9]: Active
inhibition [10]: Active
inhibition [12]: Active
SMILES: CNC(=O)c1ccccc1Nc1nc(Nc2ccc3c(c2)C(C)CN(C)CC3)ncc1Cl (racemic)
inhibition in vivo at 1 mg/kg (BaF3 [14]): 60.6%
